Our source for the IC50 values is US9447038B2 (SANOFI, priority 2012, dated 2016).

Structures can show the parent of a compound that is named as a salt.

In the assay the target is human CXCR3-A receptor (Homo sapiens (Human), UniProt P49682). The assay can be described thus: 125I-CXCL10 competition radioligand binding assay.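 Also: One-hour incubation of membranes with tracer, bound radioligand separated by glass fibre filtration, IC50 derived from four-parameter nonlinear fit of competition curves.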 The settings on record: displacement of 125I-CXCL10 from membranes of CHO cells expressing human recombinant CXCR3-A. In general terms: Loss of bound radioactivity is the signal in a displacement assay; it reports binding, not function.
human CXCR3-A receptor, sequence (P49682 whole entry): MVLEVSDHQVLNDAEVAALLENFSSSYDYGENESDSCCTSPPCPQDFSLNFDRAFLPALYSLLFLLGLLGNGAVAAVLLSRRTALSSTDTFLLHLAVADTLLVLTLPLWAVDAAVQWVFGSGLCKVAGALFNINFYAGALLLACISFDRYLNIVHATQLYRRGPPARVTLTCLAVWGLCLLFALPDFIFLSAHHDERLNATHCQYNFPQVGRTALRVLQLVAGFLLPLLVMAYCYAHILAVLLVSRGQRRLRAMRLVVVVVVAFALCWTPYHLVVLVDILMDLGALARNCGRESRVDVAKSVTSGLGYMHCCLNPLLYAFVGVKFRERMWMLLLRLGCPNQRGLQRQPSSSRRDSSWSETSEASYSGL
Broadly, the IC50 is the point on the concentration scale where inhibition reaches its midpoint. `COc1cc(CN(CC2CCCC2)C(CC(=O)O)c2ccc(C(F)(F)F)cc2)ccc1OCCN1C(=O)CCC1=O` (stereo not drawn) [Example 180, 3-(Cyclopentylmethyl-{4-[2-(2,5-dioxo-pyrrolidin-1-yl)-ethoxy]-3-methoxy-benzyl}-amino)-3-(4-trifluoromethyl-phenyl)-propionic acid]: the IC50 was found to be 198 nM.
With `COc1cc(CN(CC(C)C)C(CC(=O)O)c2ccc(Cl)cc2)ccc1CCCN1C(=O)CCC1=O` (stereo not drawn) [Example 134, 3-(4-Chloro-phenyl)-3-({4-[3-(2,5-dioxo-pyrrolidin-1-yl)-propyl]-3-methoxy-benzyl}-isobutyl-amino)-propionic acid] the figure was 296 nM; with `O=C(O)CC(c1ccc(Cl)cc1)N(Cc1ccc(OCCN2C(=O)CCC2=O)c(F)c1)CC1CCCCC1` (stereo not drawn) [Example 57, 3-(4-Chloro-phenyl)-3-(cyclohexylmethyl-{4-[2-(2,5-dioxo-pyrrolidin-1-yl)-ethoxy]-3-fluoro-benzyl}-amino)-propionic acid], 212 nM.
As to `CCCN(Cc1ccc(OCCn2c(=O)ccn(C)c2=O)c(C)c1)C(CC(=O)O)c1ccc2c(c1)CCO2` (stereo not drawn) [Example 155, 3-(2,3-Dihydro-benzofuran-5-yl)-3-({3-methyl-4-[2-(3-methyl-2,6-dioxo-3,6-dihydro-2H-pyrimidin-1-yl)-ethoxy]-benzyl}-propyl-amino)-propionic acid], the IC50 was determined as 529 nM.
With `Cc1cc(CN(CC2CCCC2)[C@@H](CC(=O)O)c2ccc(Cl)c(Cl)c2)ccc1OCCN1C(=O)CN(C)C1=O` [Example 200, (S)-3-(Cyclopentylmethyl-{3-methyl-4-[2-(3-methyl-2,5-dioxo-imidazolidin-1-yl)-ethoxy]-benzyl}-amino)-3-(3,4-dichloro-phenyl)-propionic acid; hydrochloride], the half-inhibitory concentration (IC50) was 234 nM.
With `Cc1cc(CN(CC(C)C)C(CC(=O)O)c2ccc3c(c2)CCO3)ccc1OCCn1c(=O)ccn(C)c1=O` (stereo not drawn) [Example 158, 3-(2,3-Dihydro-benzofuran-5-yl)-3-(isobutyl-{3-methyl-4-[2-(3-methyl-2,6-dioxo-3,6-dihydro-2H-pyrimidin-1-yl)-ethoxy]-benzyl}-amino)-propionic acid] the figure was 75 nM; with `COc1cc(CN(CC2CCCCC2)C(CC(=O)O)c2ccc3c(c2)CCO3)ccc1OCCn1c(=O)ccn(C)c1=O` (stereo not drawn) [Example 128, 3-(Cyclohexylmethyl-{3-methoxy-4-[2-(3-methyl-2,6-dioxo-3,6-dihydro-2H-pyrimidin-1-yl)-ethoxy]-benzyl}-amino)-3-(2,3-dihydro-benzofuran-5-yl)-propionic acid], 118 nM; with `CCCCN(Cc1ccc(CCCN2C(=O)CCC2=O)c(C)c1)C(CC(=O)O)c1ccc2c(c1)CCO2` (stereo not drawn) [Example 177, 3-(Butyl-{4-[3-(2,5-dioxo-pyrrolidin-1-yl)-propyl]-3-methyl-benzyl}-amino)-3-(2,3-dihydro-benzofuran-5-yl)-propionic acid], 255 nM.
Under `CCCN(Cc1ccc(OCCN2C(=O)CCC2=O)c(C)c1)C(CC(=O)O)c1ccc(C)cc1` (stereo not drawn) [Example 178, 3-({4-[2-(2,5-Dioxo-pyrrolidin-1-yl)-ethoxy]-3-methyl-benzyl}-propyl-amino)-3-p-tolyl-propionic acid] stands 183 nM; under `COc1cc(CN(C)C(c2ccc(Cl)cc2)C(C)C(=O)O)ccc1OCCn1c(=O)ccn(C)c1=O` (stereo not drawn) [Example 152, 3-(4-Chloro-phenyl)-3-({3-methoxy-4-[2-(3-methyl-2,6-dioxo-3,6-dihydro-2H-pyrimidin-1-yl)-ethoxy]-benzyl}-methyl-amino)-2-methyl-propionic acid], 754 nM; under `CCCCN(Cc1ccc(OCCN2C(=O)CCC2=O)c(OC)c1)C(CC(=O)O)c1ccc(Cl)cc1Cl` (stereo not drawn) [Example 150, 3-(Butyl-{4-[2-(2,5-dioxo-pyrrolidin-1-yl)-ethoxy]-3-methoxy-benzyl}-amino)-3-(2,4-dichloro-phenyl)-propionic acid], 140 nM.
As to `CCCCN(Cc1ccc(OCCN2C(=O)CCC2=O)c(CC)c1)C(CC(=O)O)c1ccc(Cl)c(Cl)c1` (stereo not drawn) [Example 99, 3-(Butyl-{4-[2-(2,5-dioxo-pyrrolidin-1-yl)-ethoxy]-3-ethyl-benzyl}-amino)-3-(3,4-dichloro-phenyl)-propionic acid], the 50% inhibitory concentration (IC50) was 120 nM.
Under `COc1cc(CN(CC2CCCC2)C2c3ccc(Cl)cc3CC2C(=O)O)ccc1OCCN1C(=O)CCC1=O` (stereo not drawn) [Example 171, 5-Chloro-1-(cyclopentylmethyl-{4-[2-(2,5-dioxo-pyrrolidin-1-yl)-ethoxy]-3-methoxy-benzyl}-amino)-indan-2-carboxylic acid] stands 389 nM.
For the molecule `O=C(O)CC(c1ccc(Cl)c(Cl)c1)N(Cc1ccc(OCCN2C(=O)CCC2=O)c(F)c1)CC1CCCC1` (stereo not drawn) [Example 65, 3-(Cyclopentylmethyl-{4-[2-(2,5-dioxo-pyrrolidin-1-yl)-ethoxy]-3-fluoro-benzyl}-amino)-3-(3,4-dichloro-phenyl)-propionic acid], the half-maximal inhibitory concentration (IC50) came out at 186 nM.
With `CCCCN(Cc1ccc(OCCN2C(=O)CCC2=O)c(C)c1)C(CC(=O)O)c1ccc(Cl)c(Cl)c1` (stereo not drawn) [Example 81, 3-(Butyl-{4-[2-(2,5-dioxo-pyrrolidin-1-yl)-ethoxy]-3-methyl-benzyl}-amino)-3-(3,4-dichloro-phenyl)-propionic acid] the figure was 100 nM.
With `CCCN(Cc1ccc(OCCN2C(=O)CCC2=O)c(F)c1)C(c1ccc(Cl)cc1)C(C)C(=O)O` (stereo not drawn) [Example 195, 3-(4-Chloro-phenyl)-3-({4-[2-(2,5-dioxo-pyrrolidin-1-yl)-ethoxy]-3-fluoro-benzyl}-propyl-amino)-2-methyl-propionic acid] the figure was 342 nM; with `CCCCN(Cc1ccc(OCCN2C(=O)CCC2=O)c(C)c1)C(CC(=O)O)c1ccc(Cl)c(F)c1` (stereo not drawn) [Example 76, 3-(Butyl-{4-[2-(2,5-dioxo-pyrrolidin-1-yl)-ethoxy]-3-methyl-benzyl}-amino)-3-(4-chloro-3-fluoro-phenyl)-propionic acid], 54 nM.
Regarding `CCN(Cc1ccc(OCCN2C(=O)CCC2=O)c(C)c1)C(c1ccc(Cl)cc1)C(C)C(=O)O` (stereo not drawn) [Example 175, 3-(4-Chloro-phenyl)-3-({4-[2-(2,5-dioxo-pyrrolidin-1-yl)-ethoxy]-3-methyl-benzyl}-ethyl-amino)-2-methyl-propionic acid], the IC50 came to 266 nM.
Under `CCCN(Cc1ccc(OCCN2C(=O)CCC2=O)c(Cl)c1)C(CC(=O)O)c1ccc(Cl)c(F)c1` (stereo not drawn) [Example 105, 3-({3-Chloro-4-[2-(2,5-dioxo-pyrrolidin-1-yl)-ethoxy]-benzyl}-propyl-amino)-3-(4-chloro-3-fluoro-phenyl)-propionic acid] stands 211 nM; under `CC(C)CN(Cc1ccc(OCCN2C(=O)CCC2=O)c(F)c1)C(CC(=O)O)c1ccc(Cl)c(Cl)c1` (stereo not drawn) [Example 63, 3-(3,4-Dichloro-phenyl)-3-({4-[2-(2,5-dioxo-pyrrolidin-1-yl)-ethoxy]-3-fluoro-benzyl}-isobutyl-amino)-propionic acid], 303 nM.
`COc1cc(CN(CC2CCCC2)C(CC(=O)O)c2ccc(Cl)c(Cl)c2)ccc1OCCN1C(=O)CCC1=O` (stereo not drawn) [Example 49, 3-(Cyclopentylmethyl-{4-[2-(2,5-dioxo-pyrrolidin-1-yl)-ethoxy]-3-methoxy-benzyl}-amino)-3-(3,4-dichloro-phenyl)-propionic acid]: the half-inhibitory concentration (IC50) was found to be 61 nM.
